These results are taken from patent US10849880B2, “Pharmaceutical composition” (FUJIFILM Toyama Chemical Co., Ltd., priority 2016, dated 2020).

A short description of data set [1]: Evaluation of degradation material: stress test at 70° C. for 7 days, HPLC. It is filed as physicochemical. The note with it: class of degradation material after 70° C. As for the experimental part: The prepared solid pharmaceutical composition was subjected to a stress test that it was stored in a thermostat at 70° C. for 7 days. The storage stability was evaluated in terms of the amount of compound A decomposed by the following method.
The above stored solid pharmaceutical composition was adjusted with water/acetonitrile/pH 3.0 phosphate buffer (450:50:1) such that the maleate of compound A had 333 μg/mL and was filtered through a membrane filter to obtain a filtrate. The degradation material of compound A was quantified by high performance liquid chromatography (HPLC). The amount of the degradation material detected at a relative retention time of 0.94 with respect to compound A was quantified as the degradation material of compound A under the following measurement conditions.
(HPLC Measurement Condition)
Evaluation criteria for the degradation material are as follows:
Evaluation was performed in the same manner as described in Examples 1-19 and Comparative Examples 1-14.

Data set [2] can be described thus: pH of maleate of compound A and additive dissolved or suspended in 10 mmol/L KCl solution. As to conditions: maleate of compound A 1 mg/mL with additive. Format: physicochemical. The procedure: The pH was measured when the maleate of compound A and the additive were dissolved or suspended in a 10 mmol/L KCl solution in such a way as to reach the respective numerical values shown in Table 2 to Table 6.

Consider `OC1CN(CCCOCCc2ccc3sccc3c2)C1` [compound 14, 1-(3-(2-(1-benzothiophen-5-yl)ethoxy)propyl)azetidin-3-ol], for which, in data set [1], the “Evaluation of degradation material” value is recorded as “A (Less than 0.25%)”. For the same compound, the pH in data set [2] is given as 4.5.
